The target of one test is T1, JAK3 kinase domain (JH1) (Homo sapiens, UniProt P52333).
T1 construct: recombinant purified His or GST-tagged catalytic domain for each enzyme; purchased Carna biosciences 08-046
The experiment in a line: HTRF-based selectivity assay, JAK3 catalytic domain. Format: biochemical. The note with it: recombinant catalytic domain, ATP 2.12 μM. As for the experimental part:
(§1) Example B-2: HTRF-Based Selectivity Assay
(§2) The ability of compounds to inhibit the activity of JAK1, JAK2, JAK3 and TYK2 is measured using a recombinant purified His or GST-tagged catalytic domain for each enzyme (JAK1, JAK2 and TYK2 are generated in-house; JAK3 was purchased from Carna biosciences, Cat #08-046) in an HTRF format biochemical assay. The reactions employs a commercial peptide substrate from Cisbio (Cat #62TK0PEC). The basic assay protocol is as follows: first, 2.5 μL of diluted compounds (4×) in DMSO are dispensed into a 384-well Optiplate. Next, 2.5 μL of enzyme (final concentrations for enzymes are: TYK2—700 ng/mL, JAK1—80.6 ng/mL, JAK2—2.1 ng/mL and JAK3—171.8 ng/mL) is added and incubated at RT for 5-20 min. Finally, 5 μl of mixture of 2× ATP [Final concentration 20 μM for TYK2, 21.43 μM for JAK1, 14.7 μM for JAK2 and 2.12 μM for JAK3]+2× Substrate [Final concentration 217 nM for TYK2, 454.7 nM for JAK1, 200 nM for JAK2 and 257.4 nM for JAK3] is added to 384 well Optiplate. Composition of Kinase assay buffer used in the assay is as follows: HEPES 50 mM, EGTA 1 mM, MgCl2 10 mM, DTT 2 mM, Tween-20 0.01% and water. Then the plates are shaken and then incubated at 26.5° C. for 60 min.
A general note: TR-FRET usually uses a lanthanide donor and a delayed reading to cut background.

Test [1] concerns HEK-Blue IL-2 reporter cells (IL-2-stimulated STAT5 SEAP reporter). The experiment in a line: HEK-Blue IL-2 SEAP reporter assay for determining selectivity. Format: cell-based. The note with it: 4 ng/mL human recombinant IL-2. The method in brief:
(§3)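 Cells were plated for 20-22 h, then pretreated with serially diluted compound for 60 min. They were stimulated for 24 h with 4 ng/mL human recombinant IL-2 or 50 ng/mL human recombinant IFNγ, and SEAP induction was read with QUANTI-Blue.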

The next test addresses T2, JAK2 kinase domain (JH1) (Homo sapiens, UniProt O60674).
T2 construct: recombinant purified His or GST-tagged catalytic domain for each enzyme; made in house
Nature of the test: HTRF-based selectivity assay, JAK2 catalytic domain. Format: biochemical. Particulars: recombinant catalytic domain, ATP 14.7 μM. The protocol: as §1, §2

The target of the next test is T3, JAK1 kinase domain (JH1) (Homo sapiens, UniProt P23458).
T3 construct: recombinant purified His or GST-tagged catalytic domain for each enzyme; made in house
Nature of the test: HTRF-based selectivity assay, JAK1 catalytic domain. The note with it: recombinant catalytic domain, ATP 21.43 μM. Format: biochemical. As for the experimental part: as §1, §2

Test [2] deals with HEK-Blue IL-23 cells (IL-23-stimulated STAT3 SEAP reporter; TYK2 JH2). Nature of the test: HEK-Blue IL-23 SEAP reporter assay for profiling TYK2 pseudokinase (JH2) inhibition. Format: cell-based. Particulars: 10 ng/mL human recombinant IL-23, SEAP reporter, read-out: IL23 (TYK2 inhibitory activity, IC50). Summed up: (§4)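 Reporter cells were seeded in DMEM/10% heat-inactivated FBS and cultured 20-22 h at 37 °C. Compounds, serially diluted, were applied for 60 min before human recombinant IL-23 (10 ng/mL, 22-24 h) or IFNα (1 ng/mL, 16-18 h) was added. Secreted alkaline phosphatase was then quantified with QUANTI-Blue.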
(In general: In a reporter assay the amount or activity of a reporter protein is the signal.)

Test [3] relates to HEK-Blue IFNα/β cells (IFNα-stimulated STAT1 SEAP reporter; TYK2 JH2). The experiment in a line: HEK-Blue IFNα/β SEAP reporter assay for profiling TYK2 pseudokinase (JH2) inhibition. It is filed as cell-based. The note with it: Homo sapiens, HEK-Blue, 1 ng/mL human recombinant IFNα, read-out: IFNα (TYK2 inhibitory activity, IC50). The method in brief:
as §4

The test system of test [4] is HEK-Blue IFNγ reporter cells (IFNγ-stimulated STAT1 SEAP reporter). The experiment in a line: HEK-Blue IFNγ SEAP reporter assay for determining selectivity. The note with it: Homo sapiens, HEK-Blue, 50 ng/mL human recombinant IFNγ, read-out: IFN-γ (SEAP selectivity, IC50). Format: cell-based. The method in brief: as §3
The target in the next test is T4, TYK2 kinase domain (JH1) (Homo sapiens, UniProt P29597).
T4 construct: recombinant purified His or GST-tagged catalytic domain for each enzyme; made in house
T4 sequence (P29597 897-1176 limits assumed): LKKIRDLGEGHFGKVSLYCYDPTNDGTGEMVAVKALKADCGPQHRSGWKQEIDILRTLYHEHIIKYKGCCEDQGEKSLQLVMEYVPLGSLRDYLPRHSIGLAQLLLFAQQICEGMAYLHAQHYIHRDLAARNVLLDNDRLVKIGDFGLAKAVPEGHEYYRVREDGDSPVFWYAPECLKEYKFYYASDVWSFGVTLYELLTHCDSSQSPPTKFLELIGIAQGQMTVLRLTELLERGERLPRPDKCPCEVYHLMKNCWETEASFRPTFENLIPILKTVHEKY
The experiment in a line: HTRF-based selectivity assay, TYK2 catalytic domain. Particulars: recombinant catalytic domain, ATP 20 μM. It is filed as biochemical. The protocol: as §1, §2

By IC50 is commonly meant the concentration needed to halve the response being measured.

T2 sequence (O60674 849-1124 limits assumed): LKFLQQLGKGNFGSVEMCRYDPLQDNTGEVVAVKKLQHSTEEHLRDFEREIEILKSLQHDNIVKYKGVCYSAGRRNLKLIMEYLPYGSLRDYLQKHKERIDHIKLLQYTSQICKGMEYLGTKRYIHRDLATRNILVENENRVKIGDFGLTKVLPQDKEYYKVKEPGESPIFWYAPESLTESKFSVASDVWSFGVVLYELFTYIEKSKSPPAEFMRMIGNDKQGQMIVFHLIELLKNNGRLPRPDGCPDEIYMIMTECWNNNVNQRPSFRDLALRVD
T3 sequence (P23458 875-1153 limits assumed): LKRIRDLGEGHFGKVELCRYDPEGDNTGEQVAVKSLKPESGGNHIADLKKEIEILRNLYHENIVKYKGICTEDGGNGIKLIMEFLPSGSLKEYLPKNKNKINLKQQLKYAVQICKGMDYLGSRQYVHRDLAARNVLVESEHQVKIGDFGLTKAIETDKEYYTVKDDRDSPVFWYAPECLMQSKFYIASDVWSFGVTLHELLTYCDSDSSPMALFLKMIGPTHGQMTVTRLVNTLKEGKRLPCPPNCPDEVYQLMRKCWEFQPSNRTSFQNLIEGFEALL
T1 sequence (P52333 822-1111 limits assumed): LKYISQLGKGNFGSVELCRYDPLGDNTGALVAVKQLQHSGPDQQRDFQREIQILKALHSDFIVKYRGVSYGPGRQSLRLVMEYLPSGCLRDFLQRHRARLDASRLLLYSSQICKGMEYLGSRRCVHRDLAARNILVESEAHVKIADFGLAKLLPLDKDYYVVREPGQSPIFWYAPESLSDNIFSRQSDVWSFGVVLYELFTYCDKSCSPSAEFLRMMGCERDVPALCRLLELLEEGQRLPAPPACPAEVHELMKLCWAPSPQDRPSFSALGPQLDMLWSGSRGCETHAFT

With `[2H]C([2H])([2H])NC(=O)c1cnc(NC(=O)C2CC2)cc1Nc1cc(F)cc2c1N(C)Cc1nc(C)nn1-2` [Compound 83, 6-(cyclopropanecarboxamido)-4-((8-fluoro-2,5-dimethyl-4,5-dihydro-[1,2,4]triazolo[1,5-a]quinoxalin-6-yl)amino)-N-(methyl-d3)nicotinamide], the IC50 is over 1000 nM on JAK3 kinase domain (JH1); over 1000 nM in test [1]; over 1000 nM on JAK2 kinase domain (JH1); over 1000 nM on JAK1 kinase domain (JH1); under 30 nM in test [2]; 30 to 300 nM in test [3]. The IC50 (in test [4]; on TYK2 kinase domain (JH1)) was over 1000 nM in each case.

In the case of `CNC(=O)c1nnc(NC(=O)C2CC2)cc1Nc1cccc2c1OCCn1cnnc1-2` [Compound 72, 6-(cyclopropanecarboxamido)-4-((5,6-dihydrobenzo[f][1,2,4]triazolo[4,3-d][1,4]oxazepin-8-yl)amino)-N-methylpyridazine-3-carboxamide], the IC50 at JAK3 kinase domain (JH1) was 300 to 1000 nM; in test [1] it was over 1000 nM; on JAK2 kinase domain (JH1), 30 to 300 nM; at JAK1 kinase domain (JH1), over 1000 nM; in test [2] it was 300 to 1000 nM; in test [3] it was over 1000 nM. For the same molecule, the IC50 (in test [4]; at TYK2 kinase domain (JH1)) was over 1000 nM in each case.

In the case of `[2H]C([2H])([2H])NC(=O)c1nnc(NC(=O)C2CC2)cc1Nc1cccc2c1N(C)Cc1ncnn1-2` [Compound 7, 6-(cyclopropanecarboxamido)-N-(methyl-d3)-4-((5-methyl-4,5-dihydro-[1,2,4]triazolo[1,5-a]quinoxalin-6-yl)amino)pyridazine-3-carboxamide], the IC50 is over 1000 nM at JAK3 kinase domain (JH1); over 1000 nM in test [1]; over 1000 nM on JAK2 kinase domain (JH1); over 1000 nM on JAK1 kinase domain (JH1); under 30 nM in test [2]; 30 to 300 nM in test [3]. For the same molecule, the IC50 is 30 to 300 nM in test [4] and over 1000 nM on TYK2 kinase domain (JH1).

In the case of `CNC(=O)c1nnc(Nc2ccc(F)cn2)cc1Nc1cccc2c1OCCn1cnnc1-2` [Compound 73, 4-((5,6-dihydrobenzo[f][1,2,4]triazolo[4,3-d][1,4]oxazepin-8-yl)amino)-6-((5-fluoropyridin-2-yl)amino)-N-methylpyridazine-3-carboxamide], the IC50 on JAK3 kinase domain (JH1) is over 1000 nM; in test [1], 300 to 1000 nM; at JAK2 kinase domain (JH1) it was 300 to 1000 nM; at JAK1 kinase domain (JH1), over 1000 nM; in test [2], 30 to 300 nM; in test [3], 300 to 1000 nM. Moreover, the values for the IC50 (in test [4]; at TYK2 kinase domain (JH1)) were 300 to 1000 nM and over 1000 nM, respectively.

Take `[2H]C([2H])([2H])NC(=O)c1cnc(NC(=O)C2CC2)cc1Nc1nccc2c1N(C)Cc1nc(C)nn1-2` [Compound 84, 6-(cyclopropanecarboxamido)-4-((2,5-dimethyl-4,5-dihydropyrido[3,4-e][1,2,4]triazolo[1,5-a]pyrazin-6-yl)amino)-N-(methyl-d3)nicotinamide]: the IC50 is over 1000 nM on JAK3 kinase domain (JH1); over 1000 nM in test [1]; over 1000 nM at JAK2 kinase domain (JH1); over 1000 nM at JAK1 kinase domain (JH1); under 30 nM in test [2]; 30 to 300 nM in test [3]. In addition, the IC50 (in test [4]; on TYK2 kinase domain (JH1)) was over 1000 nM each time.

For the molecule `[2H]C([2H])([2H])NC(=O)c1cnc(Nc2ccc(F)cn2)cc1Nc1cccc2c1N(C)CCn1cnnc1-2` [Compound 79, 6-((5-fluoropyridin-2-yl)amino)-N-(methyl-d3)-4-((7-methyl-6,7-dihydro-5H-benzo[f][1,2,4]triazolo[4,3-d][1,4]diazepin-8-yl)amino)nicotinamide], the IC50 at JAK3 kinase domain (JH1) is over 1000 nM; in test [1] it was under 30 nM; on JAK2 kinase domain (JH1), over 1000 nM; at JAK1 kinase domain (JH1), over 1000 nM; in test [2], 30 to 300 nM; in test [3], 30 to 300 nM. The IC50 in test [4] was under 30 nM; on TYK2 kinase domain (JH1) it was over 1000 nM.

For `[2H]C([2H])([2H])NC(=O)c1nnc(NC(=O)C2CC2)cc1Nc1cccc2c1N(C([2H])([2H])[2H])Cc1nn(C)nc1-2` [Compound 48, 6-(cyclopropanecarboxamido)-N-(methyl-d3)-4-((2-methyl-5-(methyl-d3)-4,5-dihydro-2H-[1,2,3]triazolo[4,5-c]quinolin-6-yl)amino)pyridazine-3-carboxamide], the IC50 was over 1000 nM at JAK3 kinase domain (JH1); 300 to 1000 nM in test [1]; over 1000 nM at JAK2 kinase domain (JH1); over 1000 nM on JAK1 kinase domain (JH1); under 30 nM in test [2]; under 30 nM in test [3]. Also, the IC50 in test [4] is 30 to 300 nM; at TYK2 kinase domain (JH1), over 1000 nM.

Regarding `[2H]C([2H])([2H])NC(=O)c1nnc(NC(=O)C2CC2)cc1Nc1nccc2c1N(C)Cc1nc(C)nn1-2` [Compound 85, 6-(cyclopropanecarboxamido)-4-((2,5-dimethyl-4,5-dihydropyrido[3,4-e][1,2,4]triazolo[1,5-a]pyrazin-6-yl)amino)-N-(methyl-d3)pyridazine-3-carboxamide], the IC50 on JAK3 kinase domain (JH1) was over 1000 nM; in test [1], over 1000 nM; on JAK2 kinase domain (JH1), over 1000 nM; on JAK1 kinase domain (JH1), over 1000 nM; in test [2], under 30 nM; in test [3], 30 to 300 nM. Moreover, the IC50 was 30 to 300 nM in test [4] and over 1000 nM on TYK2 kinase domain (JH1).

As for `[2H]C([2H])([2H])NC(=O)c1nnc(Nc2ccc(C#N)cn2)cc1Nc1cccc2c1N(C)Cc1nc(C)nn1-2` [Compound 13, 6-((5-cyanopyridin-2-yl)amino)-4-((2,5-dimethyl-4,5-dihydro-[1,2,4]triazolo[1,5-a]quinoxalin-6-yl)amino)-N-(methyl-d3)pyridazine-3-carboxamide], the half-inhibitory concentration (IC50) at JAK3 kinase domain (JH1) was over 1000 nM; in test [1], over 1000 nM; on JAK2 kinase domain (JH1), over 1000 nM; on JAK1 kinase domain (JH1), over 1000 nM; in test [2] it was under 30 nM; in test [3], under 30 nM. In addition, the IC50 at TYK2 kinase domain (JH1) is over 1000 nM.

In the case of `[2H]C([2H])([2H])NC(=O)c1cnc(NC(=O)C2CC2)cc1Nc1nccc2c1N(C)Cc1nn(C)nc1-2` [Compound 89, 6-(cyclopropanecarboxamido)-4-((2,5-dimethyl-4,5-dihydro-2H-[1,2,3]triazolo[4,5-c][1,7]naphthyridin-6-yl)amino)-N-(methyl-d3)nicotinamide], the IC50 was over 1000 nM on JAK3 kinase domain (JH1); over 1000 nM in test [1]; over 1000 nM at JAK2 kinase domain (JH1); over 1000 nM at JAK1 kinase domain (JH1); under 30 nM in test [2]; under 30 nM in test [3]. For the same molecule, the IC50 at TYK2 kinase domain (JH1) was over 1000 nM.

Turning to `[2H]C([2H])([2H])NC(=O)c1nnc(NC(=O)[C@H]2C[C@H]2F)cc1Nc1cccc2c1N(C)Cc1nc(C)nn1-2` (single isomer, unassigned) [Compound 8], the IC50 was over 1000 nM on JAK3 kinase domain (JH1); over 1000 nM in test [1]; over 1000 nM at JAK2 kinase domain (JH1); over 1000 nM at JAK1 kinase domain (JH1); under 30 nM in test [2]; 30 to 300 nM in test [3]. Further, at TYK2 kinase domain (JH1), the IC50 was over 1000 nM.

For the origin of these results see patent publication US12084458B2, “Substituted pyridines, pyridazines, and pyrimidines as TYK2 inhibitors” (Sudo Biosciences Limited, priority 2021, dated 2024).
